Ends that are not written are not given here.
Experiments:
L. lactis HP [1] = assay: Deferred antagonism assay of producer strains; assay type: cell-based, Lactococcus lactis; conditions: for Deferred Antagonism Zone Area: L. lactis NZ9800 producer spotted (approx. 3 µl) on GM17 agar, 16 h 30°C, overlaid with 0.75% agar seeded 0.5% with L. lactis HP, area of zone minus area of spot; for Deferred Antagonism Relative to WT (%): producer strain vs L. lactis HP, zone area relative to wild type nisin A producer
S. aureus RF122 [2] = assay: Deferred antagonism assay of producer strains; assay type: cell-based, Staphylococcus aureus; conditions: for Deferred Antagonism Zone Area: L. lactis NZ9800 producer spotted (approx. 3 µl) on GM17 agar, 16 h 30°C, overlaid with 0.75% agar seeded 0.5% with S. aureus RF122, area of zone minus area of spot; for Deferred Antagonism Relative to WT (%): producer strain vs S. aureus RF122, zone area relative to wild type nisin A producer
S. agalactiae ATCC 13813 [3] = assay: Deferred antagonism assay of producer strains; assay type: cell-based, Streptococcus agalactiae; conditions: for Deferred Antagonism Zone Area: L. lactis NZ9800 producer spotted (approx. 3 µl) on GM17 agar, 16 h 30°C, overlaid with 0.75% agar seeded 0.5% with S. agalactiae ATCC 13813, area of zone minus area of spot; for Deferred Antagonism Relative to WT (%): producer strain vs S. agalactiae ATCC 13813, zone area relative to wild type nisin A producer
M. smegmatis MC2155 [4] = assay: Deferred antagonism assay of producer strains; assay type: cell-based, Mycobacterium smegmatis; conditions: for Deferred Antagonism Zone Area: L. lactis NZ9800 producer spotted (approx. 3 µl) on GM17 agar, incubated 40 h, overlaid with 0.75% agar seeded 0.5% with M. smegmatis MC2155, area of zone minus area of spot; for Deferred Antagonism Relative to WT (%): producer strain vs M. smegmatis MC2155, zone area relative to wild type nisin A producer
L. lactis HP [5] = assay: Agar well diffusion assay with purified peptide; assay type: cell-based, Lactococcus lactis; conditions: for 100 mg L^−1 Agar Diffusion Zone Area: purified peptide 100 mg L^−1, 50 µl per well, 1.5% agar seeded 0.5% with L. lactis HP, 16 h; for 100 mg L^−1 Agar Diffusion Relative to WT (%): purified peptide 100 mg L^−1 vs L. lactis HP, zone area relative to nisin A
S. aureus RF122 [6] = assay: Agar well diffusion assay with purified peptide; assay type: cell-based, Staphylococcus aureus; conditions: for 100 mg L^−1 Agar Diffusion Zone Area: purified peptide 100 mg L^−1, 50 µl per well, 1.5% agar seeded 0.5% with S. aureus RF122, 16 h; for 100 mg L^−1 Agar Diffusion Relative to WT (%): purified peptide 100 mg L^−1 vs S. aureus RF122, zone area relative to nisin A
S. agalactiae ATCC 13813 [7] = assay: Agar well diffusion assay with purified peptide; assay type: cell-based, Streptococcus agalactiae; conditions: for 100 mg L^−1 Agar Diffusion Zone Area: purified peptide 100 mg L^−1, 50 µl per well, 1.5% agar seeded 0.5% with S. agalactiae ATCC 13813, 16 h; for 100 mg L^−1 Agar Diffusion Relative to WT (%): purified peptide 100 mg L^−1 vs S. agalactiae ATCC 13813, zone area relative to nisin A
M. smegmatis MC2155 [8] = assay: Agar well diffusion assay with purified peptide; assay type: cell-based, Mycobacterium smegmatis; conditions: for 100 mg L^−1 Agar Diffusion Zone Area: purified peptide 100 mg L^−1, 50 µl per well, 0.75% agar seeded 0.5% with 40 h culture of M. smegmatis MC2155, 40 h; for 100 mg L^−1 Agar Diffusion Relative to WT (%): purified peptide 100 mg L^−1 vs M. smegmatis MC2155, zone area relative to nisin A
L. lactis HP [9] = assay: Minimum inhibitory concentration (MIC) assay in broth; assay type: cell-based, Lactococcus lactis; conditions: BSA-pretreated 96-well plates, triplicate, 2-fold dilutions from 500 nM, 10^5 cfu/ml, 16 h
Description: (§1) Minimum inhibitory concentration assays were carried out in triplicate using 96-well plates (Sarstedt) pretreated with bovine serum albumin (BSA) as previously described. Wild type nisin and nisin derivatives were adjusted to a 500 nM (when using L. lactis as a target) or 7.5 µM (all other indicators) starting concentration and 2-fold serial dilutions of each peptide were carried out. An overnight of the target strain was subcultured and incubated to an OD600 nm of 0.5 before being diluted to give a final inoculum of 10^5cfu/ml in 200μl. The plates were incubated at an appropriate temperature and inspected after 16 hours. The MIC was determined as the lowest concentration at which no growth was visible.

S. aureus RF122 [10] = assay: as above; assay type: cell-based, Staphylococcus aureus; conditions: BSA-pretreated 96-well plates, triplicate, 2-fold dilutions from 7.5 µM, 10^5 cfu/ml, 16 h
Description: as §1

S. agalactiae ATCC 13813 [11] = assay: as above; assay type: cell-based, Streptococcus agalactiae; conditions: for MIC Specific Activity as % of WT: broth, BSA-pretreated 96-well plates, triplicate, 2-fold dilutions from 7.5 µM, 10^5 cfu/ml, 16 h
Description: as §1

Substance	Deferred Antagonism Zone Area (L. lactis HP [1]) [mm^2]	Deferred Antagonism Relative to WT (%) (L. lactis HP [1])	Deferred Antagonism Zone Area (S. aureus RF122 [2]) [mm^2]	Deferred Antagonism Relative to WT (%) (S. aureus RF122 [2])	Deferred Antagonism Zone Area (S. agalactiae ATCC 13813 [3]) [mm^2]	Deferred Antagonism Relative to WT (%) (S. agalactiae ATCC 13813 [3])	Deferred Antagonism Zone Area (M. smegmatis MC2155 [4]) [mm^2]	Deferred Antagonism Relative to WT (%) (M. smegmatis MC2155 [4])	100 mg L^−1 Agar Diffusion Zone Area (L. lactis HP [5]) [mm^2]	100 mg L^−1 Agar Diffusion Relative to WT (%) (L. lactis HP [5])	100 mg L^−1 Agar Diffusion Zone Area (S. aureus RF122 [6]) [mm^2]	100 mg L^−1 Agar Diffusion Relative to WT (%) (S. aureus RF122 [6])	100 mg L^−1 Agar Diffusion Zone Area (S. agalactiae ATCC 13813 [7]) [mm^2]	100 mg L^−1 Agar Diffusion Relative to WT (%) (S. agalactiae ATCC 13813 [7])	100 mg L^−1 Agar Diffusion Zone Area (M. smegmatis MC2155 [8]) [mm^2]	100 mg L^−1 Agar Diffusion Relative to WT (%) (M. smegmatis MC2155 [8])	MIC Specific Activity as % of WT (L. lactis HP [9]) [%]	MIC Specific Activity as % of WT (S. aureus RF122 [10]) [%]	MIC Specific Activity as % of WT (S. agalactiae ATCC 13813 [11]) [%]	Improvement in broth based specific activity relative to the natural peptide (S. agalactiae ATCC 13813 [11]; broth based specific activity (MIC) assay)
SLS: nisin A derivative with hinge region SLS (ITSISLCTPGCKTGALMGCSLSTATCHCSIHVSK; also: nisin-type thioether rings and dehydrated residues, not located; UniProt P13068 24-57, looked up, variant N20S M21L K22S)	370.75±28.28	123.76	153.93±7.15	111.29	209.45±17.11	92.45	230.31±20.31	448.84	321.93±22.43	120.26	98.82±10.14	99.47	226.05±4.10	91.78	119.56±8.59	176.36	25	<6	25	–
AAA: nisin A derivative with hinge region consisting of AAA (rational design) (ITSISLCTPGCKTGALMGCAAATATCHCSIHVSK; not fully specified; also: nisin-type thioether rings and dehydrated residues, not located; UniProt P13068 24-57, looked up, variant N20A M21A K22A)	492.83±40.27	164.51	292.24±11.46	211.29	401.32±15.62	177.14	277.65±60.42	541.09	416.00±17.99	155.41	155.77±3.30	156.81	305.58±2.39	124.06	149.24±4.776	220.15	100	25	200	two-fold improvement
Nisin A (ITSISLCTPGCKTGALMGCNMKTATCHCSIHVSK; not fully specified; Lantibiotic nisin-A; UniProt P13068 24-57, looked up) [WT, 34 amino acid lantibiotic with three dehydrated amino acids and five thioether rings; hinge N20-M21-K22, reference compound]	299.58±7.04	–	138.31±3.36	–	226.55±2.96	–	51.31±10.08	–	267.69±9.21	–	99.34±12.33	–	246.31±2.74	–	67.79±4.308	–	–	–	–	–
NAI: nisin A derivative with hinge region NAI (ITSISLCTPGCKTGALMGCNAITATCHCSIHVSK; also: nisin-type thioether rings and dehydrated residues, not located; UniProt P13068 24-57, looked up, variant M21A K22I)	439.52±47.88	146.71	–	118.02	318.81±7.915	140.72	270.04±58.30	526.26	371.32±19.60	–	129.75±11.36	130.61	291.52±8.46	118.36	78.50±8.16	115.8	100	25	200	–
SAA: nisin A derivative with hinge region consisting of SAA (rational design) (ITSISLCTPGCKTGALMGCSAATATCHCSIHVSK; also: nisin-type thioether rings and dehydrated residues, not located; UniProt P13068 24-57, looked up, variant N20S M21A K22A)	483.14±33.89	161.28	236.28±13.53	170.83	407.98±18.452	180.08	303.85±59.93	592.15	344.76±18.50	–	130.60±4.46	131.47	301.62±8.18	122.46	101.19±11.510	149.27	50	25	100	–
